Laboratory results published in patent publication US9110051B2, “Pharmacologic method of lowering cholesterol production” (The University of Chicago, priority 2004, dated 2015).

How the values were obtained:
Format in all cases: cell-based
[1] = system: human fibroblast cell line; assay: Fibroblast plasma membrane cholesterol susceptibility to cholesterol oxidase; details: adding 0.1-1.0 mM octanol
Method: A human fibroblast cell line is grown in bulk culture and seeded into microtiter wells the day before experimentation. The fibroblast cells from the fibroblast cell line are rinsed and treated with octanol plus cholesterol oxidase as in Example 2. The increased level of plasma membrane cholesterol activity is detected in two ways. First, plasma membrane cholesterol activity is detected by susceptibility to cholesterol oxidase. […] Cell lysis caused by cholesterol oxidation can also be determined by measuring increased cell permeability using a plate fluorescence reader and the impermeable indicator of potassium ions, PBFI, or another indicator system.

human red blood cells = assay: Screen using red blood cell lysis by amphotericin B; details: for effect on amphotericin B lysis of red cells (activity of membrane cholesterol): cholesterol lowered with cyclodextrin, turbidity or by eye, FIGS. 1 and 2; for red blood cell lysis caused by amphotericin B (visual screen): cholesterol-modified cells, octanol 0.2 μmol/well or lysophosphatidylcholine 1 μg/well, amphotericin B 20 μg/well, 1 h, room temperature
Method: Human red blood cells were either freshly drawn or taken from an outdated blood bank source and then washed and suspended in physiological buffer. The cholesterol content of washed human red blood cells was varied with methyl-β-cyclodextrin/methyl-β-cyclodextrin-cholesterol complexes. The cells were distributed into a 96-well plate and incubated for a few minutes with saline (O), 0.2 μmol/well octanol (V) or 1 μg/well lysophosphatidylcholine (□). Amphotericin B (20 μg/well) was added and the plate incubated for 1 hour at room temperature. […] In FIG. 1, turbidity (signifying intact cells) was determined in a plate-reading photometer as optical density (OD) at 500 nm; loss of OD signifies lysis. In FIG. 1, results are plotted versus total human red blood cell cholesterol, assessed with Amplex™ Red, Molecular Probes, Eugene, Oreg. The cholesterol content of unmodified red blood cells was 0.55 μg/μl cells, close to the threshold of the control curve.
Cells with modified cholesterol were placed in the conical wells of a 96-well plate, briefly pre-incubated with the two test compounds, and then treated with amphotericin B (20 μg/well) for one hour at room temperature. The plate was photographed after the cells settled. Row A: saline control. Cells depleted of cholesterol (wells 1-6) resisted lysis (seen as a loss of the central button). Row B: n-octanol (0.2 μmol/well). […] Row C: Lysophosphatidylcholine (1 μg/well).
Human red cells (freshly drawn or from an outdated blood bank source) were washed and suspended in physiological buffer. […] The cholesterol modified cells were placed in the wells of a microtiter plate and incubated for a few minutes at room temperature with octanol and lysophosphatidylcholine, which can be replaced with a battery of drugs (individually or in mixtures). Amphotericin B was then added and the plate incubated at room temperature for an hour. Cell lysis was scored by reading light scattering in a plate-reading photometer (FIG. 1) or, more simply, by letting the unlysed cells settle for an hour in conical wells and then assessing hemolysis by eye (FIG. 2).
Polyene antibiotics such as amphotericin B are known to promote the disruption of cholesterol containing membranes. However, this action depends critically on the cholesterol level in the membrane (see the control curves, O - - - O, in FIGS. 1 and 2). The critical cholesterol content for lysis is close to the physiological level in human fibroblast plasma membranes, for the same reason that ER cholesterol responds dramatically near the physiological content of the plasma membrane. […]

red blood cells = assay: Lysis of red blood cells by saponin; details: saponin 0-8 μg/well, 30 minutes, compared to solvent control, FIG. 6
Method: Red blood cells were pre-treated with either octanol, diglyceride, ceramide, or solvent before incubation with varying concentrations of saponin. The decrease in optical absorbance at 500 nm indicates increasing lysis.
Red cell membranes are treated with octanol, diglyceride, ceramide, or solvent before incubation with different concentrations of saponin (0-8 μg/well) for 30 minutes. Optical absorbance at OD500 is measured. Decreased optical absorbance indicates increasing lysis by saponin.

human fibroblasts = assay: Effect of octanol on fibroblast cholesterol; details: 24 h in growth medium with octanol, FIG. 4
Method: FIG. 4 depicts the effect of octanol on fibroblast cholesterol. Replicate flasks of fibroblasts were incubated for 24 h in growth medium with octanol. The cells were then assayed for cholesterol and protein.
The cultured cells described in Example 3 will be plated in microtiter wells and incubated with test compounds at 37° C. for two days to allow a full metabolic response. The drug will then be washed away, amphotericin B added to the wells and cell lysis followed from the leakage of potassium ions or another indicator, as above. Resistance to amphotericin B lysis will indicate that the objective has been achieved: the reduction of plasma membrane cholesterol in response to the test compound. Other polyene antibiotics (e.g., nystatin and filipin) will be tested in place of amphotericin B in order to discern their effects. In contrast to the screens described in the previous examples, which are used to identify compounds that raise the activity of membrane cholesterol, the present assay will measure the long-term effect of modulating cholesterol levels. Agents that increase plasma membrane cholesterol activity, when used as drugs, will signal cells to reduce their cholesterol accretion homeostatically. […] This can be detected by their increased resistance to amphotericin B, which normally lyses these cells.

red cell membranes = assay: Oxidation of red cell membrane cholesterol by cholesterol oxidase; details: 0-12 μmolar analog pretreatment; cholesterol oxidase 1 h, FIG. 5
Method: The red cell membranes were pretreated with ceramide or diglycerides and then treated with cholesterol oxidase for a hour. An increase in oxidation following cholesterol oxidase treatment signifies an increase in active cellular cholesterol.
Red cell membrane lysis is measured using cholesterol oxidase as set forth in the examples above. Prior to lysis, red cell membranes are treated with either differing amounts of a ceramide analog (0-12 μmolar) or differing amounts of a diglyceride analog (0-12 μmolar). The increased level of plasma membrane cholesterol activity is detected by susceptibility to cholesterol oxidase and measured as a % of oxidation.

Row | Molecule | oxidation of fibroblast cholesterol by cholesterol oxidase [1] | effect on amphotericin B lysis of red cells (activity of membrane cholesterol) (human red blood cells) | red blood cell lysis caused by amphotericin B (visual screen) (human red blood cells) | lysis of red blood cells by saponin (OD500) (red blood cells) | fibroblast cell cholesterol after prolonged culture (human fibroblasts) | susceptibility of red cell cholesterol to oxidation by cholesterol oxidase (% of oxidation) (red cell membranes)
1 | CCCCCCCCO [octanol, n-octanol] | readily oxidized | favors amphotericin B lysis | Even cholesterol depleted cells were lysed by amphotericin B | increase lysis of red blood cells at lower concentrations of saponin | resulted in cholesterol reduction | –
2 | ceramide | – | – | – | increase lysis of red blood cells at lower concentrations of saponin | – | increase the susceptibility of red cell cholesterol to oxidation
3 | lysophosphatidylcholine | – | has the opposite effect | Even enriched cells resisted amphotericin B lysis | – | – | –
